Measured values published in the supplement of paper PMC12463676, “Small-molecule dissolution of stress granules by redox modulation benefits ALS models” (Nature Chemical Biology, 2025).

Tests used:
[1] = compound: NC(=O)CCCCC1CCSS1 [lipoamide]; test: thermal stability z-score vs DMSO; higher = more thermally stabilized by treatment; conditions: HeLa, lipoamide concentration 100 µM
Method: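 Cellular thermal proteome profiling in HeLa cells. Cells were treated with 100 µM lipoamide for 1 h, with or without 1 mM arsenate for a further 1 h, then heated to ten temperatures (37-66.3 °C), and soluble protein was quantified by TMT mass spectrometry relative to 0.1% DMSO controls. The thermal stability score (sum of log2 fold changes minus the abundance score) was transformed to a z-score; mean of n = 3 experiments.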

[2] = compound: O=[As]([O-])(O)O.[K+] [potassium arsenate]; test: as above; conditions: HeLa; arsenate concentration 1 mM
Method: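 Cellular thermal proteome profiling in HeLa cells treated with 1 mM arsenate for 1 h (DMSO pretreatment), heated to ten temperatures (37-66.3 °C). Soluble protein was quantified by TMT mass spectrometry relative to DMSO controls; the thermal stability score was transformed to a z-score; mean of n = 3 experiments.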

[3] = arsenate co-treatment: 1 mM arsenate 1 h
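Further: each temperature applied for 3 min, abundance score taken as mean log2 fold change at the two lowest temperatures, z-score obtained by mean subtraction and division by SD.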

Sequence of UniProt Q13641 (Q13641 whole entry): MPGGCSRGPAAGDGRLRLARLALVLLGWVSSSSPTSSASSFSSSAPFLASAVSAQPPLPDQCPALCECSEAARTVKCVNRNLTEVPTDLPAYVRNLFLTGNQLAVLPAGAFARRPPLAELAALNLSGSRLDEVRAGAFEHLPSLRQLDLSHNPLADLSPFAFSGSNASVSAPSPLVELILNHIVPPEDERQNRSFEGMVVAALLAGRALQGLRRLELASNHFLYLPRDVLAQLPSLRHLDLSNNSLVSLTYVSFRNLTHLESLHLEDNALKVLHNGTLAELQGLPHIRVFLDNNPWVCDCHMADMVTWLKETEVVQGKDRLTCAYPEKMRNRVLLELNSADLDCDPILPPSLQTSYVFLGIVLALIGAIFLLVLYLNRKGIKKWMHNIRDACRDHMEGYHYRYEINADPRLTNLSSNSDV
Sequence of UniProt P61457 (P61457 whole entry): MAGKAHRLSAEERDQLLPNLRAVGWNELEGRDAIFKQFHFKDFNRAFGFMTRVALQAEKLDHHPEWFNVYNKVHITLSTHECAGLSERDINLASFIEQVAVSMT
Sequence of UniProt P42338 (P42338 whole entry, looked up): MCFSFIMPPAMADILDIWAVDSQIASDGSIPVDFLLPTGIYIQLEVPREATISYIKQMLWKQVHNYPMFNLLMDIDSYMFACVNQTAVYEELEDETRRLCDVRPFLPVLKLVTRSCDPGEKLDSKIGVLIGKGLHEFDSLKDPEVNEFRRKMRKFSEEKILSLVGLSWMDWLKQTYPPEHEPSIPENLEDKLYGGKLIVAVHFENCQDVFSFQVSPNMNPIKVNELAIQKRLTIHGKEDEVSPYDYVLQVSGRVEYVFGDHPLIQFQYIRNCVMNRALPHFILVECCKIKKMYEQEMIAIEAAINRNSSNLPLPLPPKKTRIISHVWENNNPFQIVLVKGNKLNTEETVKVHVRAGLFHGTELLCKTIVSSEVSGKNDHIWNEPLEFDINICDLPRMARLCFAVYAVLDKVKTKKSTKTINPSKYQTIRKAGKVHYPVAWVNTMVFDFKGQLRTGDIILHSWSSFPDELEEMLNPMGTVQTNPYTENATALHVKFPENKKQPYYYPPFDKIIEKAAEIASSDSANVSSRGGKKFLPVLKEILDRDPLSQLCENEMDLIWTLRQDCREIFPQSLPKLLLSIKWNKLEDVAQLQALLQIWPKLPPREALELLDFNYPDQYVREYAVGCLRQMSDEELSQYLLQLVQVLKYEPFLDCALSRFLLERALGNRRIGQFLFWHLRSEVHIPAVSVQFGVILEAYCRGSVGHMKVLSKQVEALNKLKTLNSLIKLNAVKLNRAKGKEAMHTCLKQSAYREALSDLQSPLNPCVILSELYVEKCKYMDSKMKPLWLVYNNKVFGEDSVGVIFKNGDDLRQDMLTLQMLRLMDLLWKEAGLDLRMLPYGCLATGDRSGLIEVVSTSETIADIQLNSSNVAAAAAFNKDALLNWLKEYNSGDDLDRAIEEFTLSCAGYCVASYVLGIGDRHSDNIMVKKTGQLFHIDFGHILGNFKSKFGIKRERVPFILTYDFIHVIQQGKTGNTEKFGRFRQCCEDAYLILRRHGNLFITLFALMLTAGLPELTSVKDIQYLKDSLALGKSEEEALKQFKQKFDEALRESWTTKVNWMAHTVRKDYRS
Sequence of UniProt Q6WKZ4 (Q6WKZ4 whole entry): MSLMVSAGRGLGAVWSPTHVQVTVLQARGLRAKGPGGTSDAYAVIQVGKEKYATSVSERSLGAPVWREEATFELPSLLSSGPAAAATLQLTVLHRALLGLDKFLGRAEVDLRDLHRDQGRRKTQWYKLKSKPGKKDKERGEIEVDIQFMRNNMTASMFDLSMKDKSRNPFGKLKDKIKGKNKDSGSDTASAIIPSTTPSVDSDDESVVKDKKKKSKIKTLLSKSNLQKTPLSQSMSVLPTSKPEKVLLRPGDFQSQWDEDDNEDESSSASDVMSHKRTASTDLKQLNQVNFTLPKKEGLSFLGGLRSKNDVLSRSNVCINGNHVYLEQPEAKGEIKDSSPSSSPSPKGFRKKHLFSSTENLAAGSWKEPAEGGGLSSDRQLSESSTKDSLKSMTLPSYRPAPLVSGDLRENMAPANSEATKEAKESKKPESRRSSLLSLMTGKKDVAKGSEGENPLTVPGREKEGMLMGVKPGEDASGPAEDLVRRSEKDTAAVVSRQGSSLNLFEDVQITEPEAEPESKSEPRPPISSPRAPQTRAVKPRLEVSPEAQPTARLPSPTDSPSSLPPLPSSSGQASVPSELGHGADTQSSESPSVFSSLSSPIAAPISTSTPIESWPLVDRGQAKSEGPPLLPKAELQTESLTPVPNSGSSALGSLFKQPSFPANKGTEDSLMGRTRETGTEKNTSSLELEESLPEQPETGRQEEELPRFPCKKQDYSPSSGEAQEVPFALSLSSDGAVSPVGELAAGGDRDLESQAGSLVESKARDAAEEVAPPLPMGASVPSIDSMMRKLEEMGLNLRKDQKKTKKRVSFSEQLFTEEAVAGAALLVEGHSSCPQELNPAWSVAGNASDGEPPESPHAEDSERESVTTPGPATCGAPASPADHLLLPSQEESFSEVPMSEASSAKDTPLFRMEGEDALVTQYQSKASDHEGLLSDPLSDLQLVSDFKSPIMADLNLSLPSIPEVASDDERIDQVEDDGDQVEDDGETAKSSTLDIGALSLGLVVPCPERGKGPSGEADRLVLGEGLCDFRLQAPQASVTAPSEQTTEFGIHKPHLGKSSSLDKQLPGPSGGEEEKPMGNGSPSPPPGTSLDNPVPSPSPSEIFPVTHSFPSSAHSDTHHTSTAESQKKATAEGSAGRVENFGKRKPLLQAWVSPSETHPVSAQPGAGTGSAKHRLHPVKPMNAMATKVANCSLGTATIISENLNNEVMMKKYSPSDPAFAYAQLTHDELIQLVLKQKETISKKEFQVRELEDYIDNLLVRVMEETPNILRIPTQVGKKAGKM
Sequence of UniProt Q16798 (Q16798 whole entry): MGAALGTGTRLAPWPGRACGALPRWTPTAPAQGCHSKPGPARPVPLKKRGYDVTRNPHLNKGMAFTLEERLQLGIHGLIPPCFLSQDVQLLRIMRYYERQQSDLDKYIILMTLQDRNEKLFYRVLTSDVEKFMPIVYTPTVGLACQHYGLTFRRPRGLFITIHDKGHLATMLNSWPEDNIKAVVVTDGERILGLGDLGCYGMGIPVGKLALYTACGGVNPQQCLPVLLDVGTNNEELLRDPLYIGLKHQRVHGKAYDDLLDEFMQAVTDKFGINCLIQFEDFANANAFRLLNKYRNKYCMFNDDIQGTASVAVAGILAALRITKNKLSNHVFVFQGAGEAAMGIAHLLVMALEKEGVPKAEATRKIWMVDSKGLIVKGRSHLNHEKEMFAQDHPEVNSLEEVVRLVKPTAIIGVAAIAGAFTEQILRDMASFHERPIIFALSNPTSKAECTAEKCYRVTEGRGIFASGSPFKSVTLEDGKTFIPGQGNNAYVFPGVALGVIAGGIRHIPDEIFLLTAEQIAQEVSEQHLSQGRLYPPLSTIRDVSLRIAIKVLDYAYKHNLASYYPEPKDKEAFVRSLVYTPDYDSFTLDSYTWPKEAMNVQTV
Sequence of UniProt Q96BD0 (Q96BD0 whole entry): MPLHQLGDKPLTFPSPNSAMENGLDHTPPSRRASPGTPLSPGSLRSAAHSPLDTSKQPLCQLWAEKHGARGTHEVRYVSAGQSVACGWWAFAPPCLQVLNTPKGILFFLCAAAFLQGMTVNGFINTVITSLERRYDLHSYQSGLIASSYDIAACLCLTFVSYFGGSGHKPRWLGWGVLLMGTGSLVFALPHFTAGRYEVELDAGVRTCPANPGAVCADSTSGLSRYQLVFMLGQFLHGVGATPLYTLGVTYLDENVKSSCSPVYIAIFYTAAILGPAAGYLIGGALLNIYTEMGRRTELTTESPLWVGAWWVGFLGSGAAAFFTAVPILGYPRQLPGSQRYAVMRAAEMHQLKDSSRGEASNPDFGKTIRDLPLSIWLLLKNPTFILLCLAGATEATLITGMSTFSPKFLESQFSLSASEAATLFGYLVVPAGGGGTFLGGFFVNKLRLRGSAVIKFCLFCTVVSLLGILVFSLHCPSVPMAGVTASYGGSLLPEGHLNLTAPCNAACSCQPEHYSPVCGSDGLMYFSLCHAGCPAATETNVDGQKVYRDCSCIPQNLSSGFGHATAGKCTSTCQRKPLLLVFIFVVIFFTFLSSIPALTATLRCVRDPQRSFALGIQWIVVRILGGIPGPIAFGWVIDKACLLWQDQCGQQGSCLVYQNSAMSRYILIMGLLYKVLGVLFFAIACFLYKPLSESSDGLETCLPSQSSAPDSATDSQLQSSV
Sequence of UniProt Q96AC1 (Q96AC1 whole entry): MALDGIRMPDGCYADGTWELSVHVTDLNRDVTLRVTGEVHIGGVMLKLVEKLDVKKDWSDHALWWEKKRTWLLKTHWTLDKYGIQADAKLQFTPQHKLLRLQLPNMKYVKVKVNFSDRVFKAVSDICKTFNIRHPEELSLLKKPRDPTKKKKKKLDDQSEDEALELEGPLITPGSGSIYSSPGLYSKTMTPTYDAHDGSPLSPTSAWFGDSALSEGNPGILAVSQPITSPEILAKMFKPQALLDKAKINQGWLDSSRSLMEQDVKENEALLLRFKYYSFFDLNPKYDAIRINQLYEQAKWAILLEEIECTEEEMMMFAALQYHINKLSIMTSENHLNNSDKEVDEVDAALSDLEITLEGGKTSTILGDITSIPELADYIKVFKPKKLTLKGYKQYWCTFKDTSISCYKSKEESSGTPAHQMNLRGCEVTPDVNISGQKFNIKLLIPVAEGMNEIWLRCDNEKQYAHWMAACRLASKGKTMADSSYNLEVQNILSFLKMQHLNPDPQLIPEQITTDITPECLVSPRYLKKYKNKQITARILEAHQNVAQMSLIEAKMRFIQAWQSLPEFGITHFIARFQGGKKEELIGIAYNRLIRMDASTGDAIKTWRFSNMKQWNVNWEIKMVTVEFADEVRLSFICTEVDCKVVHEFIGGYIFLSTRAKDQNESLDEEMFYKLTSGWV
Sequence of UniProt Q9Y605 (Q9Y605 whole entry): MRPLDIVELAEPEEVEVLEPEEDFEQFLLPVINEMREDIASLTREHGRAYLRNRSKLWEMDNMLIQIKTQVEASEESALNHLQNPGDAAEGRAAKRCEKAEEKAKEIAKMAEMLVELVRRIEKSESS

Target	thermal stability z-score [1, 3]	thermal stability z-score ([1]; arsenate co-treatment: none)	thermal stability z-score [2]
CDCA3 (UniProt Q99618)	0.196	0.0335	-0.233
CALD1 (UniProt Q05682)	0.261	0.218	0.103
RBM22 (UniProt Q9NW64)	-0.0944	0.0307	-1.96
CELF1 (UniProt Q92879)	-1.1	-0.66	-0.593
PIK3CA (UniProt P42336)	-0.275	-0.149	-0.45
C11ORF54 (UniProt Q9H0W9)	2.36	3.02	0.829
DCAF6 (UniProt Q58WW2)	-0.747	-0.879	-0.72
NOP58 (UniProt Q9Y2X3)	0.0369	-0.0387	0.471
FKBP15 (UniProt Q5T1M5)	-0.422	-0.17	0.523
USP33 (UniProt Q8TEY7)	-0.155	-0.011	1.21
ME3 (UniProt Q16798)	1.29	1.51	0.6
URGCP (UniProt Q8TCY9)	0.532	0.322	1.12
FERMT2 (UniProt Q96AC1)	0.0975	-0.153	0.203
SMARCC2 (UniProt Q8TAQ2)	1.35	1.85	0.305
AARS2 (UniProt Q5JTZ9)	-0.428	-0.143	-0.095
RAB11FIP1 (UniProt Q6WKZ4)	0.271	-0.127	-0.162
HADHB (UniProt P55084)	-0.0335	0.077	-0.422
SERPINB4 (UniProt P48594)	0.303	0.197	-0.0226
C1ORF52 (UniProt Q8N6N3)	0.477	0.0555	-0.417
FBXO7 (UniProt Q9Y3I1)	-0.692	-0.573	-0.35
DCAF10 (UniProt Q5QP82)	0.0128	0.566	0.0678
MAP2K2 (UniProt P36507)	-0.441	-0.022	0.0169
IFI35 (UniProt P80217)	1.36	0.774	2.08
PTDSS1 (UniProt P48651)	-1.63	-1.23	-0.375
SRRM2 (UniProt Q9UQ35)	2.25	1.42	-0.494
GFM1 (UniProt Q96RP9)	-0.469	0.0798	-1.15
TAMM41 (UniProt Q96BW9)	-0.232	0.102	0.161
WDR89 (UniProt Q96FK6)	2.45	1.2	-12.3

Target	thermal stability z-score [1, 3]	thermal stability z-score ([1]; arsenate co-treatment: none)	thermal stability z-score [2]
HUWE1 (UniProt Q7Z6Z7)	-0.216	0.0195	0.187
MRRF (UniProt Q96E11)	0.298	0.823	0.97
ERI3 (UniProt O43414)	0.468	0.154	0.102
NT5DC2 (UniProt Q9H857)	0.0403	-0.251	0.13
WDR6 (UniProt Q9NNW5)	-0.00677	0.325	0.0479
ATF7IP (UniProt Q6VMQ6)	0.974	0.0822	-0.304
TPBG (UniProt Q13641)	-0.727	-0.884	-0.766
RRP12 (UniProt Q5JTH9)	0.612	0.819	0.0662
DDAH2 (UniProt O95865)	0.838	0.743	0.22
FBXO4 (UniProt Q9UKT5)	-0.0696	0.534	-0.473
ALDH16A1 (UniProt Q8IZ83)	-0.127	-0.311	-0.784
PIK3CB (UniProt P42338)	-0.054	-0.193	-0.371
VAT1 (UniProt Q99536)	0.819	0.762	1.37
ALDH1B1 (UniProt P30837)	1.12	0.881	-1.44
NECAP2 (UniProt Q9NVZ3)	0.16	-0.169	-0.238
MCM2 (UniProt P49736)	-0.75	-0.391	-0.389
SLC35F6 (UniProt Q8N357)	-0.707	-0.328	-0.279
ACAD9 (UniProt Q9H845)	0.127	0.0316	-0.21
CASP1 (UniProt P29466)	-1.23	-0.846	-0.416
JPH1 (UniProt Q9HDC5)	0.0376	0.0934	-0.105
APEX2 (UniProt Q9UBZ4)	0.0959	0.209	-0.747
SLCO4A1 (UniProt Q96BD0)	0.0123	-0.101	0.0663
PCBD1 (UniProt P61457)	0.499	0.492	0.213
MRPL19 (UniProt P49406)	-0.287	-0.00717	0.274
KLF4 (UniProt O43474)	-0.157	-0.548	-1.07
MRFAP1 (UniProt Q9Y605)	0.86	-0.215	-0.23
RETSAT (UniProt Q6NUM9)	0.0873	0.172	-0.259
